{"source": "patent US11612628B2", "about": "“Compositions for the treatment of articular disorders” (Aboca S.p.A. Società Agricola, priority 2017, dated 2023)", "type_in_all_cases": "in vivo, Sprague-Dawley rats", "key": {"rat tibiotarsal joint": {"system": "rat tibiotarsal joint", "assay": "Histology of the tibiotarsal joint, MIA-treated rats", "procedure": "(§1) Damage to the joint was induced by an individual intraarticular administration, in the paw of a pre-anesthetized rat, of 2 mg of […] (MIA) (volume: 25 μl) according to what described by Guingamp et al., Arthritis Rheum., 40:1670-1679, 1997.\n(§2) The experiments described below were performed by injecting into the joint 20 μl of • control (physiological solution); • extract of lyophilized Echinacea purpurea, fraction soluble in hydroalcoholic solution 40-50%, denoted in the figures as 13C1608:2-10-20 mg/ml in PBS (phosphate buffered saline); • extract of lyophilized Centella asiatica, fraction soluble in hydroalcoholic solution 65-75%, denoted in the figures as 14G1862:0.2-1-2 mg/ml in PBS; • bovine synovial fluid: as is; • Hyalgan (Low-molecular weight Hyaluronic acid sodium salt (MW ˜500-730 kDa)):as is; • Jonexa (mixture comprised of a hylastan gel, i.e. a hyaluronic acid crosslinked with divinyl sulfone, and a sodium hyaluronate liquid in the gel-liquid ratio of 80:20): as is; • extract of Centella asiatica fraction soluble in hydroalcoholic solution 65-75%, denoted in the figures as 14G1862: 2 mg/ml in PBS • extract of lyophilized Centella asiatica, fraction soluble in hydroalcoholic solution, denoted in the figures as ABO-AR-2016-391: 2 mg/ml in PBS; • extract of lyophilized Centella asiatica, fraction soluble in hydroalcoholic solution, corresponding to the permeate of fraction ABO-AR-2016-391 after filtration, denoted in the figures as ABO-AR-2016-392:2 mg/ml in PBS; • extract of lyophilized Centella asiatica, fraction soluble in hydroalcoholic solution, corresponding to the retentate of fraction ABO-AR-2016-391 after filtration, denoted in the figures as ABO-AR-2016-393:2 mg/ml in PBS; • Triamcinolone acetonide: 100 μg/[…] • MIX (coextract) Centella+Echinacea lot 17H0246, as described above: 11 mg/ml in water f.p.i.\n(§3) Injected material: 20 μL of each sample assayed were injected into rat tibiotarsal joint (using a 26Gx3/8 needle) at […] from damage induction by MIA.\nTissue samples were fixed in 4% formalin in phosphate buffer for 24 hours. Subsequently, samples were decalcified for 28 days in a suitable decalcifying solution (1.6M formic acid, 0.76M sodium formate). At the end of the decalcification, the samples were dehydrated by passages in alcohol with increasing titer, and then included in paraffin. From samples thus processed, 7 μm-thick sections were obtained which were stained by Hematoxylin-Eosin.\nThe samples were observed under transmitted light optical microscope to assess the morphological parameters subject of analysis: • Inflammatory infiltrate • Synovial hyperplasia • Fibrin deposition in the joint space • Synovial vascularization • Cartilage erosion • Bone erosion • Joint space width\nEvery morphological parameter was evaluated by a specially provided score (0:absent, 1:scarce, 2:moderate, 3:serious). The evaluation was performed by three separate operators, in blind relative to the origin of the slides. A fourth operator collected data and obtained the final means. For each joint, at least three slides, and for each group at least 6 animals were evaluated. Results are expressed as mean±standard error."}, "[1]": {"system": "Monoiodine Acetate-Induced Osteoarthritis Pain Model", "assay": "Beam balance test, MIA-induced osteoarthritis rats", "conditions": "for Beam balance test score, from normal (0) to pathological (4): 20 μL i.a. day 8 after MIA, Table 3", "procedure": "as §1, §2\n(§4) The mixture of plant extracts was solubilized in accordance with the following protocol: 5.5 g of lyophilized mixture were introduced in a beaker containing 450 g of water and left under stirring 15 min; thereafter, the weight of the liquid was brought to 500 g. For each injection, 30 g of solution were collected and filtered in sequence with 0.45-μ, and 0.22-μm filters. For each filtering, the first 3-4 g of solution were discarded. 20 μL of mixture were injected into the tibiotarsal joint of the rat (using a 26Gx3/8 needle) after having flexed its paw so as to form a 90°-degree angle, at day 8 from articular (joint) damage induction by MIA. For the other substances as well 20 μL of solution were injected (Hyalgan 10 mg/ml; triamcinolone acetonide 100 μg/20m1).\nA 1-meter-long wooden beam having a 1 cm-square section was placed at a height of about 40 cm. […]"}, "[2]": {"system": "Monoiodine Acetate-Induced Osteoarthritis Pain Model", "assay": "Paw pressure test, MIA-induced osteoarthritis rats", "procedure": "as §1, §2, §3, §4\nAn analgesimeter (Ugo Basile, Varese, Italy) was used. A pressure increasing at a constant rate (32 g/s) was applied on the hind paw of the animal by a blunt conical element. The nociceptive threshold of the rat was expressed as that force to which the animal reacts by withdrawing the paw or vocalizing (Leighton et al., 1988)."}, "[3]": {"system": "Monoiodine Acetate-Induced Osteoarthritis Pain Model", "assay": "Animex test (spontaneous activity), MIA-induced osteoarthritis rats", "conditions": "for Animex test Number of movements: 20 μL i.a. day 8 after MIA, Table 4", "procedure": "as §1, §2\nas §4, with “For the other substances as well 20 μL of solution were injected (Hyalgan 10 mg/ml; triamcinolone acetonide 100 μg/20m1).” left out\nThe instrument enables to record the spontaneous activity of the animals through use of electromagnetic fields and resonance circuits. […] Variations are recorded by a number counter."}, "[4]": {"system": "Monoiodine Acetate-Induced Osteoarthritis Pain Model", "assay": "Incapacitance test, MIA-induced osteoarthritis rats", "conditions": "for Incapacitance test Δ Weight (contralateral - ipsilateral paw): 20 μL i.a. day 8 after MIA, Table 2; for Incapacitance test Δ Weight (paw contralateral - ipsilateral): 20 μL i.a. of fraction (2 mg/ml) or triamcinolone acetonide (100 μg), Table 9", "procedure": "as §1, §2, §3, §4\nThe test is based on the evaluation of the pressure exerted by a rat under conditions of normal posture on each of the hind legs (Hay et al. Neurosci. 78:843-850, 1997). Rats were placed into a small plexiglass box, their hind legs positioned onto two transducers recording the weight the rat distributes on each of the two paws. In case a neuropathy or an inflammation has been induced on one paw, the rat will exert less weight on said paw, compared to the other one."}, "[5]": {"conditions": "Centella fractions study, FIGS. 3 and 4"}, "[6]": {"conditions": "coextract study, single i.a. 20 μL, days 14, 30, 60"}}, "note": "“And” between values parts separate entries of the source, which are not always exact repeats. Equal values may be shown once."}
{"smiles": "CC1(C)O[C@@H]2C[C@H]3[C@@H]4CCC5=CC(=O)C=C[C@]5(C)[C@@]4(F)[C@@H](O)C[C@]3(C)[C@]2(C(=O)CO)O1", "note": "[triamcinolone acetonide, Triamcinolone acetonide]", "values": [{"measurement": "cartilage and bone tissue erosion (histology, in words)", "setting": "rat tibiotarsal joint; [5]", "result": "significant effectiveness"}, {"measurement": "inflammatory infiltrate (histology, in words)", "setting": "rat tibiotarsal joint; [5]", "result": "significant effectiveness"}, {"measurement": "joint space reduction (histology, in words)", "setting": "rat tibiotarsal joint; [5]", "result": "reduced effectiveness to 15- and 30-day timings and a more marked effectiveness after 60 days"}, {"measurement": "morphological parameters overall (histology, in words)", "setting": "rat tibiotarsal joint; [5]", "result": "only partially reduces the damaging effects of MIA"}, {"measurement": "other parameters: synovial hyperplasia, fibrin deposition, synovial vascularization (histology, in words)", "setting": "rat tibiotarsal joint; [5]", "result": "reduced effectiveness to 15- and 30-day timings and a more marked effectiveness after 60 days"}, {"measurement": "articular space width (histology, in words)", "setting": "rat tibiotarsal joint; coextract study, FIG. 18-19", "result": "Evident effects"}, {"measurement": "erosion of cartilage and subchondral bone (histology, in words)", "setting": "rat tibiotarsal joint; coextract study, FIG. 18-19", "result": "analogous result"}, {"measurement": "fibrin deposition in the articular space (histology, in words)", "setting": "rat tibiotarsal joint; coextract study, FIG. 18-19", "result": "More moderate effects"}, {"measurement": "inflammatory infiltrate (histology, in words)", "setting": "rat tibiotarsal joint; coextract study, FIG. 18-19", "result": "capable of eliminating the presence of inflammatory infiltrate at all timings analyzed"}, {"measurement": "synovial hyperplasia and vascularization (histology, in words)", "setting": "rat tibiotarsal joint; coextract study, FIG. 18-19", "result": "More moderate effects"}, {"measurement": "Beam balance test score, from normal (0) to pathological (4)", "setting": "[1]; Day 14", "result": "1.8 ± 0.2^"}, {"measurement": "Beam balance test score, from normal (0) to pathological (4)", "setting": "[1]; Day 30", "result": "1.3 ± 0.2"}, {"measurement": "Beam balance test score, from normal (0) to pathological (4)", "setting": "[1]; Day 60", "result": "0.8 ± 0.2"}, {"measurement": "motor abilities, Beam balance test (in words)", "setting": "[1]; [6]", "result": "statistical significance is reached solely at day 14"}, {"measurement": "Paw pressure test Weight", "setting": "[2]; Day 14, contralateral, 20 μL i.a. day 8 after MIA, Table 1", "result": "64.5 ± 0.9", "unit": "g"}, {"measurement": "Paw pressure test Weight", "setting": "[2]; Day 14, contralateral, 20 μL i.a. of fraction (2 mg/ml) or triamcinolone acetonide (100 μg), Table 8", "result": "65.3 ± 1.0", "unit": "g"}, {"measurement": "Paw pressure test Weight", "setting": "[2]; Day 14, ipsilateral, 20 μL i.a. day 8 after MIA, Table 1", "result": "51.9 ± 1.3^^ g"}, {"measurement": "Paw pressure test Weight", "setting": "[2]; Day 14, ipsilateral, 20 μL i.a. of fraction (2 mg/ml) or triamcinolone acetonide (100 μg), Table 8", "result": "52.8 ± 1.1", "unit": "g"}, {"measurement": "Paw pressure test Weight", "setting": "[2]; Day 30, contralateral, 20 μL i.a. day 8 after MIA, Table 1", "result": "68.4 ± 1.6", "unit": "g"}, {"measurement": "Paw pressure test Weight", "setting": "[2]; Day 30, contralateral, 20 μL i.a. of fraction (2 mg/ml) or triamcinolone acetonide (100 μg), Table 8", "result": "65.8 ± 0.5", "unit": "g"}, {"measurement": "Paw pressure test Weight", "setting": "[2]; Day 30, ipsilateral, 20 μL i.a. day 8 after MIA, Table 1", "result": "57.4 ± 0.4^ g"}, {"measurement": "Paw pressure test Weight", "setting": "[2]; Day 30, ipsilateral, 20 μL i.a. of fraction (2 mg/ml) or triamcinolone acetonide (100 μg), Table 8", "result": "56.7±2.5 g and 56.7 ± 2.5^^ g"}, {"measurement": "Paw pressure test Weight", "setting": "[2]; Day 60, contralateral, 20 μL i.a. day 8 after MIA, Table 1", "result": "64.9 ± 2.1", "unit": "g"}, {"measurement": "Paw pressure test Weight", "setting": "[2]; Day 60, contralateral, 20 μL i.a. of fraction (2 mg/ml) or triamcinolone acetonide (100 μg), Table 8", "result": "66.4 ± 0.7", "unit": "g"}, {"measurement": "Paw pressure test Weight", "setting": "[2]; Day 60, ipsilateral, 20 μL i.a. day 8 after MIA, Table 1", "result": "63.0 ± 1.5^ g"}, {"measurement": "Paw pressure test Weight", "setting": "[2]; Day 60, ipsilateral, 20 μL i.a. of fraction (2 mg/ml) or triamcinolone acetonide (100 μg), Table 8", "result": "61.3 ± 1.6", "unit": "g"}, {"measurement": "antiperalgesic effect, Paw pressure test (in words)", "setting": "[2]; [6]", "result": "significantly reduces the articular pain reaction at all timings"}, {"measurement": "Animex test Number of movements", "setting": "[3]; Day 14", "result": "487.3 ± 57.3^"}, {"measurement": "Animex test Number of movements", "setting": "[3]; Day 30", "result": "583.3 ± 45.2^"}, {"measurement": "Animex test Number of movements", "setting": "[3]; Day 60", "result": "688.9 ± 54.2^"}, {"measurement": "spontaneous mobility, Animex test (in words)", "setting": "[3]; [6]", "result": "effectiveness is lower than that of the plant mixture"}, {"measurement": "Incapacitance test effect (in words)", "setting": "[4]; Centella fractions study, fractions 2 mg/ml, triamcinolone acetonide 100 μg", "result": "active both at days 14 and 30"}, {"measurement": "Incapacitance test Δ Weight (contralateral - ipsilateral paw)", "setting": "[4]; Day 14", "result": "45.7 ± 3.9^^ g"}, {"measurement": "Incapacitance test Δ Weight (paw contralateral - ipsilateral)", "setting": "[4]; Day 14", "result": "28.7 ± 3.2^ g"}, {"measurement": "Incapacitance test Δ Weight (contralateral - ipsilateral paw)", "setting": "[4]; Day 30", "result": "25.4 ± 4.3^^ g"}, {"measurement": "Incapacitance test Δ Weight (paw contralateral - ipsilateral)", "setting": "[4]; Day 30", "result": "15.6 ± 5.4^ g"}, {"measurement": "Incapacitance test Δ Weight (contralateral - ipsilateral paw)", "setting": "[4]; Day 60", "result": "20.9 ± 5.4^ g"}, {"measurement": "Incapacitance test Δ Weight (paw contralateral - ipsilateral)", "setting": "[4]; Day 60", "result": "5.6 ± 4.4", "unit": "g"}, {"measurement": "reduction of MIA-induced postural alteration, Incapacitance test (in words)", "setting": "[4]; [6]", "result": "reduces, it also in a statistically significant manner, MIA-induced alteration at all timings considered"}]}
